Data: the supplement of paper PMC10307832

What was measured:
Experiment in all cases: relative viability (nuclei count vs DMSO), 5 days (fraction); higher = more cells survive
[1] = compound: C1CC(C1)(C(=O)O)C(=O)O.[NH2-].[NH2-].[Pt+2] [Carboplatin] + CC(=O)c1c(C)c2cnc(Nc3ccc(N4CCNCC4)cn3)nc2n(C2CCCC2)c1=O [Palbociclib] (partner 0.5 µM)
Summary of the method: (§1)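 Each reported value is a median over duplicate plates. It expresses relative viability: treated-well nuclei count divided by vehicle-well nuclei count. Lung cancer cell lines in 1536-well plates were dosed by pin tool a day after seeding, alone with one drug or with a fixed anchor-drug dose plus five library-drug doses (not always all listed) in √10 steps, and nuclei were counted after 5 days.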

GSK126 + Phenformin = compound: CC[C@H](C)N1C=C(C2=C(C=C(C=C21)C3=CN=C(C=C3)N4CCNCC4)C(=O)NCC5=C(C=C(NC5=O)C)C)C [GSK126] + N=C(N)NC(=N)NCCc1ccccc1 [Phenformin] (partner 250 µM)
Summary of the method: as §1

GSK126 + Olaparib = compound: CC[C@H](C)N1C=C(C2=C(C=C(C=C21)C3=CN=C(C=C3)N4CCNCC4)C(=O)NCC5=C(C=C(NC5=O)C)C)C [GSK126] + O=C(c1cc(Cc2n[nH]c(=O)c3ccccc23)ccc1F)N1CCN(C(=O)C2CC2)CC1 [Olaparib] (partner 8 µM)
Summary of the method: as §1

MLN4924 + Phenformin = compound: NS(=O)(=O)OC[C@@H]1C[C@@H](n2ccc3c(N[C@H]4CCc5ccccc54)ncnc32)C[C@@H]1O [MLN4924] + N=C(N)NC(=N)NCCc1ccccc1 [Phenformin] (partner 250 µM)
Summary of the method: as §1

Cell Line | relative viability ([1]; first compound 0.08 µM) | relative viability ([1]; first compound 0.253 µM) | relative viability ([1]; first compound 0.8 µM) | relative viability ([1]; first compound 2.53 µM) | relative viability ([1]; first compound 8 µM) | relative viability (GSK126 + Phenformin; first compound 0.08 µM) | relative viability (GSK126 + Phenformin; first compound 0.253 µM) | relative viability (GSK126 + Phenformin; first compound 0.8 µM) | relative viability (GSK126 + Phenformin; first compound 2.53 µM) | relative viability (GSK126 + Phenformin; first compound 8 µM) | relative viability (GSK126 + Olaparib; first compound 0.08 µM) | relative viability (GSK126 + Olaparib; first compound 0.253 µM) | relative viability (GSK126 + Olaparib; first compound 0.8 µM) | relative viability (GSK126 + Olaparib; first compound 2.53 µM) | relative viability (GSK126 + Olaparib; first compound 8 µM) | relative viability (MLN4924 + Phenformin; first compound 0.04 µM) | relative viability (MLN4924 + Phenformin; first compound 0.1265 µM) | relative viability (MLN4924 + Phenformin; first compound 0.4 µM) | relative viability (MLN4924 + Phenformin; first compound 1.265 µM) | relative viability (MLN4924 + Phenformin; first compound 4 µM)
NCI-H1793 | 0.364 | 0.365 | 0.31 | 0.325 | 0.365 | 0.407 | 0.458 | 0.384 | 0.274 | 0.235 | 0.931 | 0.8 | 0.732 | 1.24 | 0.989 | 0.292 | 0.367 | 0.313 | 0.224 | 0.183
HCC-44 | 0.994 | 0.975 | 1 | 0.859 | 0.89 | 0.23 | 0.194 | 0.186 | 0.192 | 0.243 | 1.01 | 1.02 | 1.03 | 0.92 | 1 | 0.144 | 0.172 | 0.0837 | 0.0692 | 0.102
NCI-H3122 | 0.17 | 0.211 | 0.17 | 0.183 | 0.189 | 0.405 | 0.367 | 0.364 | 0.351 | 0.319 | 0.713 | 0.712 | 0.628 | 0.654 | 0.628 | 0.315 | 0.274 | 0.169 | 0.131 | 0.136
COR-L23 | 0.32 | 0.303 | 0.226 | 0.196 | 0.123 | 0.504 | 0.445 | 0.437 | 0.435 | 0.404 | 0.422 | 0.33 | 0.33 | 0.354 | 0.387 | 0.42 | 0.332 | 0.326 | 0.133 | 0.0871
201T | 0.374 | 0.356 | 0.37 | 0.336 | 0.362 | 0.478 | 0.46 | 0.443 | 0.437 | 0.387 | 0.867 | 0.845 | 0.831 | 0.906 | 0.886 | 0.553 | 0.555 | 0.43 | 0.278 | 0.327
NCI-H23 | 0.453 | 0.513 | 0.513 | 0.461 | 0.419 | 0.843 | 0.792 | 0.738 | 0.761 | 0.77 | 0.299 | 0.361 | 0.312 | 0.3 | 0.263 | 0.764 | 0.8 | 0.406 | 0.341 | 0.233
LCLC-103H | 0.538 | 0.469 | 0.543 | 0.431 | 0.444 | 0.331 | 0.383 | 0.377 | 0.344 | 0.39 | 0.837 | 0.791 | 0.774 | 0.792 | 0.795 | 0.358 | 0.368 | 0.347 | 0.157 | 0.143
NCI-H2087 | 0.259 | 0.23 | 0.208 | 0.212 | 0.194 | 0.457 | 0.39 | 0.448 | 0.449 | 0.487 | 0.62 | 0.6 | 0.683 | 0.752 | 0.788 | 0.442 | 0.349 | 0.298 | 0.0782 | 0.0942
NCI-H1944 | 0.335 | 0.359 | 0.332 | 0.332 | 0.272 | 0.194 | 0.196 | 0.183 | 0.168 | 0.178 | 0.431 | 0.376 | 0.402 | 0.408 | 0.387 | 0.22 | 0.187 | 0.173 | 0.112 | 0.122
HARA | 0.311 | 0.344 | 0.204 | 0.225 | 0.308 | 0.607 | 0.434 | 0.476 | 0.367 | 0.38 | 0.994 | 0.911 | 0.934 | 0.861 | 0.657 | 0.35 | 0.355 | 0.177 | 0.0555 | 0.0476
NCI-H2347 | 0.456 | 0.418 | 0.423 | 0.482 | 0.42 | 0.488 | 0.444 | 0.499 | 0.352 | 0.409 | 0.562 | 0.524 | 0.529 | 0.581 | 0.62 | 0.376 | 0.453 | 0.381 | 0.21 | 0.302
COR-L 105 | 0.442 | 0.427 | 0.384 | 0.379 | 0.414 | 0.5 | 0.547 | 0.596 | 0.529 | 0.513 | 0.586 | 0.628 | 0.732 | 0.583 | 0.631 | 0.567 | 0.366 | 0.325 | 0.244 | 0.301
A-427 | 0.585 | 0.509 | 0.542 | 0.484 | 0.488 | 0.362 | 0.34 | 0.311 | 0.346 | 0.258 | 0.704 | 0.724 | 0.701 | 0.765 | 0.837 | 0.193 | 0.165 | 0.171 | 0.146 | 0.151
HCC-15 | 0.751 | 0.721 | 0.702 | 0.615 | 0.575 | 0.513 | 0.419 | 0.457 | 0.422 | 0.442 | 0.749 | 0.776 | 0.686 | 0.608 | 0.745 | 0.319 | 0.191 | 0.145 | 0.0825 | 0.0982
NCI-H1623 |  |  |  |  |  | 0.631 | 0.594 | 0.602 | 0.589 | 0.537 |  |  |  |  |  | 0.503 | 0.479 | 0.39 | 0.274 | 0.248
NCI-H2342 | 0.514 | 0.483 | 0.482 | 0.531 | 0.526 | 0.942 | 0.566 | 0.558 | 0.525 | 0.759 | 0.447 | 0.501 | 0.392 | 0.424 | 0.469 | 0.705 | 0.661 | 0.613 | 0.551 | 0.501
